Legend:
BT-549 cells = experiment: Apoptotic response time course by FACS analysis; assay type: cell-based; details: BT-549, 5 μM, time course to 120 hours
Description: (§1) FIG. 6A depicts an analysis of the breast cancer cell lines MCF-7, MB-468, SK-BR-3, MB-231, T47D and BT549 for an apoptotic effect of 5 μM 3-deazaneplanocin over a time frame of 120 hours. Cell death was measured by FACS analysis. Data presented are the average of three independent experiments.
(§2) Cells were trypsinised and washed with PBS and fixed in 70% ethanol and processed for propidium iodide staining and FACS analysis. For the caspase 3 activity assay and mitochondrial membrane potential detection, cells were stained with anti-active caspase 3 and JC-1, respectively, according to the manufacturer's instructions (BD Bioscience).
(§3) To extend the observation seen in MCF-7 cells, additional breast cancer cell lines were screened, including MB-468, SK-BR-3, MB-231, T47D and BT549. […] To identify the PRC2 target genes associated with the cellular sensitivity to 3-deazaneplanocin, the array analysis was performed in these breast cancer cell lines before and after 3-deazaneplanocin treatment and the expression of the 47 identified PRC2 targets profiled. It was reasoned that some the PRC2 target genes might be differentially expressed between the sensitive and resistant cell lines, which might confer the distinct sensitivity to 3-deazaneplanocin. […] Both the real time and conventional RT-PCR analysis of the 4 gene set confirmed the array data (FIGS. 6D & 6E). […]

MB-231 cells = experiment: Apoptotic response time course by FACS analysis; assay type: cell-based; details: MB-231, 5 μM, time course to 120 hours
Description: as §1, §2, §3

[1] = tested on: SUZ12 binding to PRC2 target gene promoters; experiment: ChIP of SUZ12 binding to PRC2 target gene promoters; assay type: cell-based, human; details: MCF-7 cells, 5 μM, 48 hours
Description: ChIP assays were performed as described previously. […] MCF-7 cell were seeded into 6-well plates at 30% confluence and treated with or without 3-deazaneplanocin (5 μM) for 48 hours. Cells were washed once in 1× phosphate-buffered saline (PBS) and then treated with 1% formaldehyde in PBS at 37° C. for […] followed by the addition of glycine to a final concentration of 0.125 M for 5 mM. Cells were then scraped on ice and centrifuged at 1500 rpm for 5 mM at 4° C. After washing with PBS cell pellets were resuspended in 1 mL of cold lysis buffer (10 mM HEPES at pH 7.5, 1 mM EDTA at pH 8.0, 400 mM NaCl, 10% glycerol, 0.5% NP-40, 0.5 mM phenylmethylsulfonyl fluoride, and protease inhibitors [1 mM benzamidine, 3 mg/mL leupeptin, 0.1 mg/mL bacitracin, 1 mg/mL macroglobulin]) followed by centrifugation at 11,500 rpm in a microfuge for 5 min at 4° C. to remove protein not cross-linked to chromatin. The resulting pellets were then resuspended again in 1 mL of cold lysis buffer and sonicated with a Heat Systems-Ultrasonics, Inc. W-220 sonicator at 20% output for a total of 2 mM (pulsed: 30 sec on/30 sec off). The resulting solution was cleared by centrifugation at maximum speed in a microfuge for 10 mM at 4° C. At this point 5% of the solution was taken and stored at −20° C. for the input chromatin sample. […]

T47D cells = experiment: Apoptotic response time course by FACS analysis; assay type: cell-based, human; details: 5 μM, time course to 120 hours
Description: as §1, §2, §3

SK-BR-3 cells = experiment: Apoptotic response time course by FACS analysis; assay type: cell-based, human; details: SK-BR-3, 5 μM, time course to 120 hours
Description: as §1, §2, §3

[2] = tested on: PRC2 target genes TGFBI, KRT17, FBXO32, ANXA8, DLX2; experiment: Real-time RT-PCR of representative PRC2 targets in MCF-7 cells; assay type: cell-based, human
Description: I: MCF-7 cells were untreated or treated with 3-deazaneplanocin (DZNep), 5-azacytidine (5-AzaC) or a combination of 5-azacytidine and trichostatin A (AZA+TSA), and RNA was isolated for gene expression analysis.
(§4) Cells were maintained in DMEM supplemented with 10% fetal bovine serum with glutamine, penicillin, and streptomycin. For drug treatment, cells were seeded the day before the drug treatment. Cells were treated with 5 μM 3-Deazaneplanocin A or 2 μM 5-aza-2′-deoxycytidine (5-AzaC; Sigma) for 72 hours and trichostatin A (TSA; Sigma) at 100 nM for 24 hours. For co-treatment of cells with 5-AzaC and TSA, 5-Aza was added for 48 hours and followed by TSA for 24 hours.
Total RNA was isolated from cell lines using Trizol (Invitrogen) and was converted to cDNA using an RNA Amplification kit (Ambion). […] Quantitative real-time PCR was performed on a PRISM 7900 sequenced detector (Applied Biosystems) using TaqMan probes (Applied Biosystems). Samples were normalized to the levels of 18S ribosomal RNA.
The array results were further confirmed by real-time RT-PCR for representative PRC2 targets.

MCF-7 cells = experiment: Microarray gene expression analysis (Illumina BeadChip) in MCF-7 cells; assay type: cell-based, human
Description: as §4
The Smartpool siRNA duplexes of selected PRC2 targets and the non-targeting control were purchased from Dharmacon (Lafayett, Colo.). […] Cells were transfected with 50 nM final concentration of siRNA duplexes using Lipofectamine 2000 (Invitrogen) following the manufacturer's instructions.
Total RNA was isolated from cell lines using Trizol (Invitrogen) and was converted to cDNA using an RNA Amplification kit (Ambion). The microarray hybridisation was performed using the Illumina Gene Expression BeadChip (Illumina) and data analysis was performed using GeneSpring software from Agilent Technologies.
The effects on gene expression were analysed using an Illumina Gene Expression BeadChip. […] To be inclusive for the subsequent analysis, all 1402 genes were considered to be potential PRC2 target genes.
To identify the PRC2 targets specifically repressed in breast cancer cells, the expression profiles of the 140 putative PRC2 target genes in MCF-7 cells and MCF10A cells were compared by gene clustering analysis (FIG. 4C).

## Nc1nccc2c1ncn2C1C=C(CO)C(O)C1O (stereo not drawn) [3-deazaneplanocin, 5-(4-amino-1H-imidazo[4,5-c]pyridin-1-yl)-3-(hydroxymethyl)-3-cyclopentene-1,2-diol]
BT-549 cells
  sensitivity to 3-deazaneplanocin-induced cell death: highly resistant
MB-231 cells
  sensitivity to 3-deazaneplanocin-induced cell death: highly resistant
[1]
  SUZ12 binding to PRC2 target gene promoters (ChIP): markedly reduced
T47D cells
  sensitivity to 3-deazaneplanocin-induced cell death: highly susceptible
SK-BR-3 cells
  sensitivity to 3-deazaneplanocin-induced cell death: highly susceptible
[2]
  expression of ANXA8 and DLX2 (real-time RT-PCR): activated
  induction of TGFBI, KRT17 and FBX032 (real-time RT-PCR): only induced
MCF-7 cells
  expression of the 47 PRC2 target genes repressed in MCF-7 relative to MCF10A: re-expression
MCF-7 cells; 72 h
  number of genes upregulated ≧2-fold: 750 genes
